Measurements from patent publication US20130072495A1, “FUSED BICYCLIC KINASE INHIBITORS” (OSI Pharmaceuticals, LLC, priority 2010, published 2013).

Legend:
MKN45 cells = assay: MKN45 cell proliferation assay (CellTiter-Glo); type: cell-based; details: Homo sapiens, MKN-45, 72 h; MKN45 cell line, 3 days incubation, at least duplicate experiments; read-out: Prolif. IC50
Method: The effect of inhibitors on the proliferation of MKN45 cells was determined using the following protocol. MKN45 cells were plated in Corning 3917 96-well white tissue culture treated plates in growth medium (RPMI, 10% FCS) at a density of 5000 cells/well in a total volume of 135 μL and incubated at 37° C., 5% CO2, 95% humidity overnight. The following day, one-tenth volume of a 10× concentration of compounds was added to the wells in an 8-point dilution series. The dilution series was composed of an initial 1:5 dilution of a 10 mM stock of compound in DMSO, followed by serial 1:4 dilutions in DMSO, then a 1:20 dilution in growth medium prior to the 1:10 dilution into the cell plate. Final DMSO concentration on the cells was 0.1%, there were control wells treated with both 0.1% DMSO and no DMSO. The typical dilution range is 10 μM to 0.6 nM. Once the compound was added to the cells, plates were incubated for 3 days at 37° C., 5% CO2 at 95% humidity. On the third day, after allowing all cells and reagents to come to room temperature, 25 μL of CellTiter-Glo reagent (Promega # G7573) was added to the wells. Plates were shaken on a platform for 10 minutes prior to reading luminescence for 0.1 seconds. The signal of the control wells was taken as 100% growth and growth inhibition was expressed as percent of control. IC50 values were determined from the percent of control data using a standard four-parameter model.
(§1) The IC50 values of exemplary compounds of the present invention determined in a cell proliferation assay using the MKN45 cell line according to the procedures described herein in at least duplicate experiments are abbreviated as follows and are shown in Table 1: A, IC50≦0.1 μM; B, 0.1 μM<IC50≦0.5 μM; C, 0.5 μM<IC50≦2 μM; D, IC50>2 μM; ND, not determined. The Example # of Table 1 corresponds to the compound example number as illustrated in the Experimental section above.
Treatment of this cell line with a selective MET inhibitor led to induction of apoptosis and inhibition of proliferation, whereas non-MET-amplified cell lines were not affected. Smolen et al., Proc. Natl. Acad. Sci. USA, 103(7):2316-2321 (2006). This cell line is thus “driven” by MET, and antiproliferative effects correlate very well with the inhibition of MET phosphorylation so that the cell proliferation IC50 values can be used as surrogate for the MET cell mechanistic IC50 values. Under the assay conditions described herein, the IC50 values correlate nearly 1:1.

MET = biological target: T1, MET (Homo sapiens, UniProt P08581); assay: MET cell mechanistic assay (MKN45), phosphorylated MET levels; type: cell-based; details: MKN45 cell line, four hours incubation, at least duplicate experiments, read-out: MET mech IC50
T1 construct: endogenous in cells; host or cells: MKN45
T1 sequence (P08581 25-1390): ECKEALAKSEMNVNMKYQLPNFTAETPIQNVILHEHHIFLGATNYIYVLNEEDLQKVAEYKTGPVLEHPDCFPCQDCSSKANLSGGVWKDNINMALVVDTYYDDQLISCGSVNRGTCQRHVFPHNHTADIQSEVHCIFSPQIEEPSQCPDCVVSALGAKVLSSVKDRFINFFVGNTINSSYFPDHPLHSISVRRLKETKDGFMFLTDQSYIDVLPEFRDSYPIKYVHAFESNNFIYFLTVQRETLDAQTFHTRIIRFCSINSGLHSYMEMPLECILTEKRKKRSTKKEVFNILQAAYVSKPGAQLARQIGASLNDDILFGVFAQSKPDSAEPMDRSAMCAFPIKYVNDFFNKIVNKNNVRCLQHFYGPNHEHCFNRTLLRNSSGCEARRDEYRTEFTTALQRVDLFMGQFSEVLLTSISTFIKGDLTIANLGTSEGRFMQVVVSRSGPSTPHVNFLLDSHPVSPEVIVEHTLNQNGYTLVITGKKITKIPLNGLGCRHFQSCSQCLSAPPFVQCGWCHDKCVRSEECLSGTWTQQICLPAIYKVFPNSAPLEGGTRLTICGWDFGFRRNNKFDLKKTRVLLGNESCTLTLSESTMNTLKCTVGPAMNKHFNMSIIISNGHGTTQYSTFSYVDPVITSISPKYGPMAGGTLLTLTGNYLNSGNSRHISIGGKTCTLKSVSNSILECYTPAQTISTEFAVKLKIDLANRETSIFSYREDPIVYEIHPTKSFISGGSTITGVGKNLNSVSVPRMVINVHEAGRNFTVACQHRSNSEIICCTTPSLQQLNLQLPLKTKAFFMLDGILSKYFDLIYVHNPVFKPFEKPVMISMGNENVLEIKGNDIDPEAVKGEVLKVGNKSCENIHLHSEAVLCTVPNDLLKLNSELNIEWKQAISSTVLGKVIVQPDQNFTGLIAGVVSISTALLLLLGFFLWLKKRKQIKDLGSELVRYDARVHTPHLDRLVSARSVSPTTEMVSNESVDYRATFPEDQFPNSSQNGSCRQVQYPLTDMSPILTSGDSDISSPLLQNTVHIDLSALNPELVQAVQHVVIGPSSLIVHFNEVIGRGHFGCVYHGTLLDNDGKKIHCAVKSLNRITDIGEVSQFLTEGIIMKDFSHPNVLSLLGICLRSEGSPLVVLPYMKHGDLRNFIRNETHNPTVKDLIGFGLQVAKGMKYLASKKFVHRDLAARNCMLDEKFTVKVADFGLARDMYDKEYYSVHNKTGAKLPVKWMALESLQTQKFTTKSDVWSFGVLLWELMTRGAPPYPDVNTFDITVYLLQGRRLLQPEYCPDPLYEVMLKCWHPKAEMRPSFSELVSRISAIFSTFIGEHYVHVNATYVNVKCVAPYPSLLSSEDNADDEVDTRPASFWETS
Method: The cellular activity of the compounds of the present invention against MET may be determined by the following procedure. MKN45 cells were plated in Falcon 3072 96-well plates in growth media (RPMI, 10% FBS, 1% L-glutamine) at a density of 5000 cells/well and incubated at 37° C., 5% CO2 overnight. The following day, one-tenth volume of a 10× concentration of compounds was added to the wells in a 6-point dilution series. The dilutions series was composed of an initial […] in DMSO, followed by a […] in growth media, for a final DMSO concentration on cells of 0.5%. Control wells were treated with 0.5% DMSO. The typical range of dilution was 10 μM to 3 nM. Once compound was added to the cells, plates were incubated for four hours at 37° C., 5% CO2. Plates were then washed in PBS, and lysed in triton-based lysis buffer. Lysates were transferred to a precoated capture plate made by Biosource (Cat # KHO0281). The phosphorylated MET levels were measured by incubating with a rabbit polyclonal antibody against phosphorylated MET ([pYpYpY1230/1234/1235]) followed by an anti-rabbit antibody conjugated to HRP. Signal was measured on a Wallac Victor plate reader at 450 nm. The DMSO signal of the control wells was defined as 100% and the percent of inhibition of phosphorylated MET was expressed as percent of control. IC50 values were determined from the percent of control data using a standard four-parameter model.
as §1, with “in a MET cell mechanistic” for “in a cell proliferation”, “MET cell mechanistic assay using” for “a cell proliferation assay using”, “in Table 2: A, IC50≦0.1” for “in Table 1: A, IC50≦0.1”, “of Table 2 corresponds to” for “of Table 1 corresponds to”

Row | IC50 (MKN45 cells) [nM] | IC50 (MET) [nM] | Structure (SMILES)
1 | 100 to 500 | 100 to 500 | CC(c1c(Cl)ccc(F)c1Cl)c1c[nH]c2ncc(-c3cnn(C4CCNCC4)c3)nc12 (stereo not drawn) [Example 2, 7-[1-(2,6-dichloro-3-fluorophenyl)ethyl]-2-(1-piperidin-4-yl-1H-pyrazol-4-yl)-5H-pyrrolo[2,3-b]pyrazine]
2 | 500 to 2000 | 100 to 500 | CC(c1c(Cl)ccc(F)c1Cl)c1c[nH]c2ncc(-c3cnn(C4CCN(C=O)CC4)c3)nc12 (stereo not drawn) [Example 3, 4-(4-{7-[1-(2,6-dichloro-3-fluorophenyl)ethyl]-5H-pyrrolo[2,3-b]pyrazin-2-yl}-1H-pyrazol-1-yl)piperidine-1-carbaldehyde]
3 | > 2000 | > 2000 | CC(c1c(Cl)ccc(F)c1Cl)c1c[nH]c2nnc(-c3cnn(C4CCNCC4)c3)cc12 (stereo not drawn) [Example 16, 5-[1-(2,6-Dichloro-3-fluorophenyl)ethyl]-3-[1-(piperidin-4-yl)-1H-pyrazol-4-yl]-7H-pyrrolo[2,3-c]pyridazine]
